We go through one compound from patent publication US9957236B2, “Selective inhibitors interfering with fibroblast growth factor receptor and FRS2 interaction for the prevention and treatment of cancer and other diseases” (LIMITED LIABILITY COMPANY “RUSSIAN PHARMACEUTICAL …, priority 2014, dated 2018).

Data set [1] concerns the target T1, FGFR2-Fc (Homo sapiens, UniProt P21802).
T1 construct: consisted of human extracellular domain FGFR2α (Inc) and Fc-fragment of human IgG1
Kind of data set: Enzyme linked FGF2 binding assay with FGFR2-Fc. As to conditions: concentrations of 1 to 1000 nM, FGF-2 + heparin. How it is done:
Non-radioactive enzyme linked FGF2 binding assay was performed in order to assess if RPT835 influences on binding of FGFR2 and ligand (FGF-2). Recombinant chimeric protein FGFR2-Fc, which consisted of human extracellular domain FGFR2α (Inc) and Fc-fragment of human IgG1 was used in the binding assay of FGF-2. FGFR2α contained all the 3 immunoglobulin-like domains and represented domain IIIc FGFR2 with high affinity to FGF-2. A 96-cavity plate tablet was covered with FGFR2-Fc protein, and then the following was added into the cavities:
3) inhibitor RPT835 in various concentrations+FGF-2+heparin
4) a part of the cavities remained without stimulators (FGF-2+heparin) and RPT835 (negative control).
After incubation, enzyme-linked immunoassay was carried out using the corresponding antibodies and subsequent determination of OD650 (optic density with wavelength of 650 nm).

The test system of data set [2] is T47D breast cancer cells. Kind of data set: Crystal Violet proliferation assay, T47D. Type of data set: cell-based. The settings on record: hardly expressed FGFR2, bFGF 100 ng/ml, 7 days. An excerpt: This research used additional cell lines: SKOV3 (ovarian cancer, ATCC # HTB-77), HS578T (breast cancer, ATCC # HTB-126), T47D (breast cancer, ATCC #HTB-1336), modified line of non-small cells lung cancer A549, line of metastatic melanoma of skin Mel Kor (RF Patent No. 2287578), and additional study of antiangiogenic activity—cell line SVEC-4-10 (endothelial cells, ATCC #CRL-2181).
The cells were cultivated in environment RPMI-1640 (PANECO) (SKOV3, HS578T, T47D, Mel-Kor) or DMEM (PANECO) (SVEC-4-10) containing 10% of embryonal serum cattle (FCS, HyClone), 2 mM glutamine (PANECO), antibiotics (100 IU/mL penicillin and […] streptomycin (all PANECO)) at 37° C. and 5% CO2. Cells at 70-80% monolayer were used for the experiments.
The cells were planted in low density (30 t of cells/ml) in triplets on a 96-cavity plate in an environment containing 0.1% of FCS serum. […] Growth of cells was determined by the modified “Crystal Violet mitogenic method” for 7 days after the experiment start. […] The dye was dissolved in ethanol and measured on a spectrophotometer at 540-560 nm. The curve of cell proliferative activity inhibition was built by the dependence of the percent of the cell quantity (Y axis) on concentration of inhibitor RPT835 in the cavity of the plate (X axis). […]

The subject of data set [3] is non-small cell lung cancer NCI-H226. Kind of data set: Tumor growth of NCI-H226 xenograft in nude mice. The format is in vivo. As to conditions: 30 day; NCI-H226 not expressing FGFR2, 30 mg/kg daily through a stomach tube; P=0.619 vs control. How it is done:
Females of immunodeficient mice (nude) at the age of 8 weeks were administered 2×10^6 tumor cells of human cell lines with various expression of FGFR2: • cell line of triple-negative breast cancer SUM52PE strongly expressing FGFR2 (purchased from Asterand, Inc. (Detroit, Mich.) • cell line of triple negative breast cancer HS578T weakly expressing FGFR2 (purchased from ATCC (CRL-125) • cell line of non-small cell lung cancer NCI-H226 not expressing FGFR2 (purchased from ATCC (CRL-5826)
After the tumor growth got established (1 mm^3), the mice were divided into control and treatment groups in accordance with the tumor type.
Control group 3 (N=10): NCI-H226, administration of water through a stomach tube, daily.
Treatment group 3 (N=10): NCI-H226, administration of inhibiter RPT835 through a stomach tube in a dose of 30 mg/kg, daily.
Size of tumor and weight of animals were measured every 3 day. The mice underwent euthanasia when the tumor reached the size of 2,000 mm^3 or on the 60 day of the experiment.

In data set [4] the test system is angiogenesis stimulated by bFGF. Kind of data set: Matrigel implant angiogenesis stimulated by bFGF. The format is in vivo, mice. How it is done: Eighteen hybrid mice of the 1 generation F1 (C57B1/6×DBA/2), males with a weight of 22-30 g are used in the research. The mice (nomenclature number M02.13.00011) were received from a branch of nursery “Stolbovaya”. The method described earlier was used in the experiment [Passaniti A., 1992]. The control and experiment groups had at least 3 mice. Aliquots (1,000 mcl) of Matrigel (BD Biosciences) containing heparin 60 conventional units/ml, VEGF (200 ng/ml, BD Biosciences) or bFGF (100 ng/ml, BD Biosciences) were prepared on ice. Matrigel containing heparin 60 conventional units/ml was used as negative control. Matrigel was injected in the mice subcutaneously into the side part of the back. After injection, Matrigel quickly forms single, hard gel-like implant. A weight of the inhibitor was dissolved in DMSO to concentration of 10^−2M. Aliquots were frozen down to −20° C. and unfrozen immediately before injection. Refreezing of the solution was not allowed. The tested and standard objects were administered intraperitoneally on the 0, 3 and 6 day of Matrigel impintation: Bevacizumab in a dose of 10 mg/kg and RPT835-15 mg/kg. Seven days after administration of Matrigel, the mice were put into sleep with diethyl ether to remove the implant. The implants were fixed for 24-36 hours in 10% neutral formalin and enclosed in paraffin for further histological research.

For data set [5], the system named is HUVEC. The data set is described as follows: Proliferation of endothelial cells HUVEC with FGF-2. The format is cell-based. As to conditions: Homo sapiens, FGF-2 25 ng/ml, 96 hours, read-out: Cell growth suppression, IC50. On the procedure:
Endothelial cells HUVEC were sawn in 96-cavity plates and cultivate for 24 hours. After that, the following was added to the cells: • 1) inhibitor RPT835, or • 2) inhibitor described by Formula IX in this invention, or • 3) brivanib—multi-kinase inhibitor of FGFR/VEGFR, and also to all cells—FGF-2 in a concentration of 25 ng/ml.
The cells were cultivated for 96 hours in general and then were calculated.

The nature of data set [6]: Toxicity assessment in the in vivo studies of Example 13. The settings on record: nude mice, 30 mg/kg daily through a stomach tube. On the procedure:
Toxicity of inhibitor RPT835 was assessed in in vivo studies described in Example 13. According to the standard procedure, all undesirable events were assessed, as well as loss of weight by animals, when the inhibitor is used compared to the control group.

[7] abbreviates: Matrigel + bFGF, 15 mg/kg intraperitoneally day 0, 3, 6, p<0.001.

T1 sequence (P21802 22-377 limits assumed): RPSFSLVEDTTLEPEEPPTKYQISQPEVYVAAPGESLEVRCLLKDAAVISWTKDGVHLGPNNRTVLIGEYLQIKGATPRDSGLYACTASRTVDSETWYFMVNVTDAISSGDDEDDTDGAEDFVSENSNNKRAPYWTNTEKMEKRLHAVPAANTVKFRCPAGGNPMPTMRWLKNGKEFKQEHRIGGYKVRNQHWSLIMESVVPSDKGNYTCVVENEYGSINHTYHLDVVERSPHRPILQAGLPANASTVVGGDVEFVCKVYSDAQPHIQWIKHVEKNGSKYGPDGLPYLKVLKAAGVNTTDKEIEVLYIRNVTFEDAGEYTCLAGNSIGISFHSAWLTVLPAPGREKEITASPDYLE

As usually defined, the IC50 is the concentration needed to halve the response being measured. For the compound `Cc1cc([N+](=O)[O-])c(NS(=O)(=O)c2cccc(C(=O)O)c2)cc1-c1cccnc1` [RPT835, 3-(N-(4-methyl-2-nitro-5-(pyridin-3-yl)phenyl)sulfamoyl)benzoic acid], the “binding of FGF-2 and FGFR2-Fc” value in data set [1] is reported as “did not influence on binding of ligand with the receptor”. Besides, in data set [2], the “inhibition of proliferative activity” value was “did not block”. In addition, the average tumor volume in data set [3] is 1,053±259.7 mm3. For the same compound, in data set [4] (setting [7]), the “decrease of number of functional micro-vessels compared to the control group” value is “more than 2 fold” and the “decrease of number of migrated cells compared to the control group” value is on record as “more than 2 fold”. For the same compound, the “decrease of number of tubular structures compared to the control group” value in data set [4] (Matrigel + bFGF, 15 mg/kg intraperitoneally day 0, 3, 6, p=0.016) is given as “more than 2 fold”. The “angiogenesis stimulated by bFGF” value in data set [4] (Matrigel implants in mice, intraperitoneally day 0, 3, 6, RPT835 15 mg/kg, Bevacizumab 10 mg/kg) is recorded as “effectively inhibited”. Also, in data set [5], the IC50 was determined as 11 nM. Besides, in data set [6], the “weight loss and undesirable side effects of the therapy” value is reported as “Neither weight loss, nor any undesirable side effects”.
